Source: patent US11622991B2, “Protocol for treatment of lupus nephritis” (Aurinia Pharmaceuticals Inc., priority 2017, dated 2023)

System: lupus nephritis
Test: Predictability of week 48 partial remission from early reduction in UPCR (Tables 4-8)
Type: in vivo, human
Experimental: In the study reported in Example 1, the predictability of outcomes based on markers at early time points were determined.
This is important because it is undesirable to subject a patient to unnecessary treatment, even if the treatment is relatively safe.
PR is defined as at least 50% reduction in proteinuria (i.e. UPCR).
Sensitivity is defined as the probability that a subject showing PR at 48 weeks would have shown a favorable result with regard to the marker at the designated early time point. In the tables below, this is the ratio of the number of subjects with favorable marker results (early drop or normalization) to the total subjects with 48 week PR.
Specificity is defined as the probability that a subject not showing PR at 48 weeks would have shown an unfavorable result with regard to the marker at the designated early time point. In the tables below, this is the ratio of the number of subjects with unfavorable marker results (no early drop or no normalization) to the total subjects with no 48 week PR.
Positive predictive value is defined as the probability that a subject showing a favorable result with respect to the marker at an earlier time point would show PR at 48 weeks. In the tables below, this is the ratio of the number of subjects with favorable marker results who have 48 week PR to those with favorable marker results (early reduction or yes column).
Negative predictive value is defined as the probability that a subject showing an unfavorable result with respect to the marker at an earlier time point would not show PR at 48 weeks. In the tables below, this is the ratio of the number of subjects with unfavorable marker results who have no PR at 48 weeks to the total subjects with unfavorable marker results (no early reduction or no column).

[1] = 15% reduction in UPCR, Week 2, 23.7 mg BID
[2] = 15% reduction in UPCR, Week 2, 39.5 mg BID
[3] = 15% reduction in UPCR, Week 4, 23.7 mg BID
[4] = 15% reduction in UPCR, Week 6, 39.5 mg BID
[5] = 15% reduction in UPCR, Week 8, 39.5 mg BID
[6] = 15% reduction in UPCR, Week 12, 23.7 mg BID
[7] = 15% reduction in UPCR, Week 12, 39.5 mg BID
[8] = 15% reduction in UPCR, Week 16, 23.7 mg BID
[9] = 15% reduction in UPCR, Week 20, 23.7 mg BID
[10] = 15% reduction in UPCR, Week 20, 39.5 mg BID
[11] = 15% reduction in UPCR, Week 24, 23.7 mg BID
[12] = 15% reduction in UPCR, Week 26, 23.7 mg BID
[13] = 15% reduction in UPCR, Week 26, 39.5 mg BID
[14] = 15% reduction in UPCR, Week 36, 23.7 mg BID
[15] = 15% reduction in UPCR, Week 36, 39.5 mg BID
[16] = 15% reduction in UPCR, Week 48, 23.7 mg BID
[17] = 20% reduction in UPCR, Week 2, 23.7 mg BID
[18] = 20% reduction in UPCR, Week 2, 39.5 mg BID
[19] = 20% reduction in UPCR, Week 4, 23.7 mg BID
[20] = 20% reduction in UPCR, Week 6, 23.7 mg BID
[21] = 20% reduction in UPCR, Week 8, 23.7 mg BID
[22] = 20% reduction in UPCR, Week 8, 39.5 mg BID
[23] = 20% reduction in UPCR, Week 12, 23.7 mg BID
[24] = 20% reduction in UPCR, Week 12, 39.5 mg BID
[25] = 20% reduction in UPCR, Week 16, 23.7 mg BID
[26] = 20% reduction in UPCR, Week 20, 23.7 mg BID
[27] = 20% reduction in UPCR, Week 20, 39.5 mg BID
[28] = 20% reduction in UPCR, Week 24, 23.7 mg BID
[29] = 20% reduction in UPCR, Week 26, 23.7 mg BID
[30] = 20% reduction in UPCR, Week 26, 39.5 mg BID
[31] = 20% reduction in UPCR, Week 36, 23.7 mg BID
[32] = 20% reduction in UPCR, Week 36, 39.5 mg BID
[33] = 20% reduction in UPCR, Week 48, 23.7 mg BID
[34] = 25% reduction in UPCR, Week 2, 23.7 mg BID
[35] = 25% reduction in UPCR, Week 2, 39.5 mg BID
[36] = 25% reduction in UPCR, Week 4, 23.7 mg BID
[37] = 25% reduction in UPCR, Week 6, 23.7 mg BID
[38] = 25% reduction in UPCR, Week 8, 23.7 mg BID
[39] = 25% reduction in UPCR, Week 8, 39.5 mg BID
[40] = 25% reduction in UPCR, Week 12, 23.7 mg BID
[41] = 25% reduction in UPCR, Week 12, 39.5 mg BID
[42] = 25% reduction in UPCR, Week 16, 23.7 mg BID
[43] = 25% reduction in UPCR, Week 20, 23.7 mg BID
[44] = 25% reduction in UPCR, Week 20, 39.5 mg BID
[45] = 25% reduction in UPCR, Week 24, 23.7 mg BID
[46] = 25% reduction in UPCR, Week 24, 39.5 mg BID

C=C/C=C/C[C@@H](C)[C@@H](O)[C@H]1C(=O)N[C@@H](CC)C(=O)N(C)CC(=O)N(C)[C@@H](CC(C)C)C(=O)N[C@@H](C(C)C)C(=O)N(C)[C@@H](CC(C)C)C(=O)N[C@@H](C)C(=O)N[C@H](C)C(=O)N(C)[C@@H](CC(C)C)C(=O)N(C)[C@@H](CC(C)C)C(=O)N(C)[C@@H](C(C)C)C(=O)N1C [voclosporin]
Early Reduction No [1]: 30 | No Week 48 Partial Remission Early Drop [1]: 10 | Week 48 Partial Remission No Early Drop [1]: 16 | Early Reduction No [2]: 30 | No Week 48 Partial Remission No Early Drop [2]: 9 | No Week 48 Partial Remission No Early Drop [3]: 11 | Week 48 Partial Remission No Early Drop [3]: 9 | No Week 48 Partial Remission No Early Drop [4]: 4 | Week 48 Partial Remission No Early Drop [4]: 10 | No Week 48 Partial Remission No Early Drop (15% reduction in UPCR, Week 8, 23.7 mg BID): 7 | Early Reduction No [5]: 9 | No Week 48 Partial Remission No Early Drop [5]: 4 | No Week 48 Partial Remission No Early Drop [6]: 4 | Week 48 Partial Remission No Early Drop [6]: 2 | Early Reduction No [7]: 9 | No Week 48 Partial Remission No Early Drop [7]: 4 | Early Reduction No [8]: 8 | Week 48 Partial Remission No Early Drop [8]: 3 | Early Reduction No (15% reduction in UPCR, Week 16, 39.5 mg BID): 11 | Early Reduction No [9]: 3 | No Week 48 Partial Remission No Early Drop [9]: 3 | Early Reduction No [10]: 9 | Week 48 Partial Remission No Early Drop [10]: 4 | Early Reduction No [11]: 2 | No Week 48 Partial Remission No Early Drop [11]: 2 | Early Reduction No (15% reduction in UPCR, Week 24, 39.5 mg BID): 10 | Early Reduction No [12]: 3 | No Week 48 Partial Remission Early Drop [12]: 9 | No Week 48 Partial Remission No Early Drop [12]: 3 | Early Reduction No [13]: 4 | No Week 48 Partial Remission No Early Drop [13]: 4 | Early Reduction No [14]: 4 | No Week 48 Partial Remission Early Drop [14]: 10 | No Week 48 Partial Remission No Early Drop [14]: 3 | Week 48 Partial Remission No Early Drop [14]: 1 | Early Reduction No [15]: 7 | Week 48 Partial Remission No Early Drop [15]: 1 | Early Reduction No [16]: 2 | No Week 48 Partial Remission Early Drop [16]: 9 | No Week 48 Partial Remission No Early Drop [16]: 2 | No Week 48 Partial Remission Early Drop (15% reduction in UPCR, Week 48, 39.5 mg BID): 10 | Early Reduction No [17]: 33 | No Week 48 Partial Remission Early Drop [17]: 8 | No Week 48 Partial Remission No Early Drop [17]: 16 | Early Reduction No [18]: 34 | No Week 48 Partial Remission No Early Drop [18]: 10 | No Week 48 Partial Remission No Early Drop [19]: 11 | Week 48 Partial Remission No Early Drop [19]: 10 | No Week 48 Partial Remission Early Drop [20]: 11 | No Week 48 Partial Remission No Early Drop [20]: 7 | Week 48 Partial Remission No Early Drop (20% reduction in UPCR, Week 6, 39.5 mg BID): 10 | No Week 48 Partial Remission Early Drop [21]: 11 | No Week 48 Partial Remission No Early Drop [21]: 8 | Early Reduction No [22]: 10 | No Week 48 Partial Remission No Early Drop [22]: 4 | Early Reduction No [23]: 7 | Week 48 Partial Remission No Early Drop [23]: 2 | Early Reduction No [24]: 9 | No Week 48 Partial Remission No Early Drop [24]: 4 | Early Reduction No [25]: 9 | Week 48 Partial Remission No Early Drop [25]: 3 | Early Reduction No (20% reduction in UPCR, Week 16, 39.5 mg BID): 11 | Early Reduction No [26]: 4 | No Week 48 Partial Remission No Early Drop [26]: 4 | Early Reduction No [27]: 9 | Week 48 Partial Remission No Early Drop [27]: 4 | Early Reduction No [28]: 4 | No Week 48 Partial Remission Early Drop [28]: 11 | No Week 48 Partial Remission No Early Drop [28]: 3 | Week 48 Partial Remission No Early Drop [28]: 1 | Early Reduction No (20% reduction in UPCR, Week 24, 39.5 mg BID): 11 | Early Reduction No [29]: 3 | No Week 48 Partial Remission Early Drop [29]: 9 | No Week 48 Partial Remission No Early Drop [29]: 3 | Early Reduction No [30]: 4 | No Week 48 Partial Remission No Early Drop [30]: 4 | Early Reduction No [31]: 4 | No Week 48 Partial Remission Early Drop [31]: 10 | No Week 48 Partial Remission No Early Drop [31]: 3 | Week 48 Partial Remission No Early Drop [31]: 1 | Early Reduction No [32]: 8 | Week 48 Partial Remission No Early Drop [32]: 2 | Early Reduction No [33]: 2 | No Week 48 Partial Remission Early Drop [33]: 9 | No Week 48 Partial Remission No Early Drop [33]: 2 | No Week 48 Partial Remission Early Drop (20% reduction in UPCR, Week 48, 39.5 mg BID): 10 | No Week 48 Partial Remission Early Drop [34]: 8 | No Week 48 Partial Remission No Early Drop [34]: 16 | No Week 48 Partial Remission No Early Drop [35]: 10 | Week 48 Partial Remission Early Drop [35]: 33 | No Week 48 Partial Remission No Early Drop [36]: 11 | Week 48 Partial Remission No Early Drop [36]: 11 | Week 48 Partial Remission No Early Drop (25% reduction in UPCR, Week 4, 39.5 mg BID): 16 | No Week 48 Partial Remission Early Drop [37]: 10 | No Week 48 Partial Remission No Early Drop [37]: 8 | Week 48 Partial Remission No Early Drop [37]: 8 | No Week 48 Partial Remission Early Drop [38]: 10 | No Week 48 Partial Remission No Early Drop [38]: 9 | Early Reduction No [39]: 10 | No Week 48 Partial Remission No Early Drop [39]: 4 | Early Reduction No [40]: 10 | Week 48 Partial Remission No Early Drop [40]: 4 | Early Reduction No [41]: 9 | No Week 48 Partial Remission No Early Drop [41]: 4 | Early Reduction No [42]: 10 | No Week 48 Partial Remission Early Drop [42]: 11 | No Week 48 Partial Remission No Early Drop [42]: 7 | Week 48 Partial Remission No Early Drop [42]: 3 | Week 48 Partial Remission No Early Drop (25% reduction in UPCR, Week 16, 39.5 mg BID): 7 | No Week 48 Partial Remission Early Drop [43]: 11 | Week 48 Partial Remission No Early Drop [43]: 1 | Early Reduction No [44]: 9 | Week 48 Partial Remission No Early Drop [44]: 4 | Early Reduction No [45]: 4 | No Week 48 Partial Remission Early Drop [45]: 11 | No Week 48 Partial Remission No Early Drop [45]: 3 | Week 48 Partial Remission No Early Drop [45]: 1 | No Week 48 Partial Remission No Early Drop [46]: 7 | Week 48 Partial Remission No Early Drop [46]: 7 | Early Reduction No (25% reduction in UPCR, Week 26, 23.7 mg BID): 4
